According to patent US20110294861A1, “METHOD OF TREATMENT OF HEREDITARY HEMOCHROMATOSIS” (NOVARTIS AG, priority 2006, published 2011):

Key:
[1] = subcutaneous, 3 patients with HH; compared with weekly phlebotomy, e.g. 500 ml; cited from earlier work
[2] = in vivo; cited from earlier work
HJV−/− mice = assay: Iron overload in a murine model of juvenile hemochromatosis (organ iron by ICP-OES); assay type: in vivo
Method: Compound I, a novel tridentate oral iron chelator, is effective in the treatment of patients with transfusional iron overload and it has not been investigated in primary iron overload. We sought to examine spontaneous iron loading and the effect of Compound I upon the removal of iron in HJV−/− mice with iron overload.
Methods: Inductively-Coupled Plasma Optical Emission Spectrometry (ICP-OES, measurement of elemental iron) determinations in liver, heart, spleen and pancreas were performed at week 8 (study start), 14, 20 and 28 in HJV−/− and wild type (wt) mice (n=6-8), subsequent to MRI measurements in heart and liver. Starting at week 20 three groups of HJV−/− animals received daily 0 (vehicle), 30 or 100 mg/kg Compound I, control wt-mice remained untreated. Iron loading was observed up to 28 weeks (including vehicle group) and the effects of Compound I were assessed by comparing the 28-week groups. MRI R2* measurements were performed using a 4.7T MR imager. For the myocardial and hepatic R2* assessments single slice, ECG gated gradient echo images and single slice transversal gradient echo images were acquired, respectively.

[3] = Plasma half life within the human body; assay type: in vivo
[4] = Exposure of Compound I in mice compared with human studies; assay type: in vivo; details: mice versus human studies
[5] = 100 mg/kg daily, week 20 to 28, HJV−/− mice, ICP-OES
[6] = hemojuvelin knock out mouse, within 8 weeks of treatment (conclusion)

CC(=O)N(O)CCCCCNC(=O)CCC(=O)N(O)CCCCCNC(=O)CCC(=O)N(O)CCCCCN [DFO, desferrioxamine]
effectiveness of treatment of iron overload [1]: as effective as weekly phlebotomy
half life within the bloodstream [2]: short

O=C(O)c1ccc(-n2nc(-c3ccccc3O)nc2-c2ccccc2O)cc1 [Compound I, 4-[3,5-bis(2-hydroxyphenyl)-[1,2,4]triazol-1-yl]benzoic acid]
effects on organ iron load (HJV−/− mice; 30 mg/kg daily, HJV−/− mice): modest
effects on organ iron load in liver and heart (HJV−/− mice; 100 mg/kg daily, HJV−/− mice): quite pronounced
pancreas iron (HJV−/− mice; 100 mg/kg daily, HJV−/− mice): clear trend to lower levels
heart iron reduced as compared to the (HJV−/−)-vehicle treated group (HJV−/− mice; [5]): 41%
liver iron reduced as compared to the (HJV−/−)-vehicle treated group (HJV−/− mice; [5]): 63%
liver and heart iron (HJV−/− mice; [6]): significantly reduced
pancreatic iron load (HJV−/− mice; [6]): trend to improvement
half-life [3]: 8 to 16 h
lower exposure in mice [4]: 6-9 times
